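96-well plates; 48 h exposure; 5 concentrations. Endpoints by linear interpolation between flanking doses. Not reached: highest tested concentration assigned. Here, GI50 denotes the concentration required for 50% inhibition of growth.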 Active and inactive are the calls of the source. Cut-off read from the data, not from the text of the source: active = GI50 up to about 1.1 µM and inactive = higher.
Key:
Assay in all cases: inhibition of tumour cell growth, NCI panel, 48 h
[1] = tested on: 786-0
[2] = tested on: DLD-1
[3] = tested on: HCC 2998
[4] = tested on: HL-60
[5] = tested on: HT-29
[6] = tested on: KM-20L2
[7] = tested on: LOX IMVI
[8] = tested on: M19-MEL
[9] = tested on: Malme-3M
[10] = tested on: NCI-H226
[11] = tested on: OVCAR-3
[12] = tested on: SF-539
[13] = tested on: SK-MEL-28
[14] = tested on: SK-MEL-2
[15] = tested on: UACC-62
[16] = tested on: UO-31
[17] = tested on: HOP-18

Row | SMILES | GI50 [1] | GI50 [2] | GI50 [3] | GI50 [4] | GI50 [5] | GI50 [6] | GI50 [7] | GI50 [8] | GI50 [9] | GI50 [10] | GI50 [11] | GI50 [12] | GI50 [13] | GI50 [14] | GI50 [15] | GI50 [16] | GI50 [17]
1 | CC(C)(C)C1=CC(=NNC(=S)NCc2ccccc2)C=C(C(C)(C)C)C1=O | 55.6 µM (inactive) | 59.6 µM (inactive) | 53.7 µM (inactive) | > 100 µM (inactive) | 73.1 µM (inactive) | > 100 µM (inactive) | 73.8 µM (inactive) | 98.4 µM (inactive) | > 100 µM (inactive) | 78.5 µM (inactive) | > 100 µM (inactive) | > 100 µM (inactive) | > 100 µM (inactive) | > 100 µM (inactive) | > 100 µM (inactive) | 52 µM (inactive) | –
2 | C[C@]12Cc3cn[nH]c3C(=O)C1CC[C@@H]1C2CC[C@@]2(C)C1CC[C@@H]2O (stereo partly specified) | > 100 µM (inactive) | – | – | > 100 µM (inactive) | > 100 µM (inactive) | > 100 µM (inactive) | > 100 µM (inactive) | – | > 100 µM (inactive) | > 100 µM (inactive) | > 100 µM (inactive) | > 100 µM (inactive) | > 100 µM (inactive) | 1.23 µM (inactive) | > 100 µM (inactive) | > 100 µM (inactive) | > 100 µM (inactive)
3 | CC1(C)SCc2nc3ncccc3n21 | > 100 µM (inactive) | > 100 µM (inactive) | > 100 µM (inactive) | > 100 µM (inactive) | > 100 µM (inactive) | > 100 µM (inactive) | > 100 µM (inactive) | > 100 µM (inactive) | > 100 µM (inactive) | > 100 µM (inactive) | > 100 µM (inactive) | > 100 µM (inactive) | > 100 µM (inactive) | > 100 µM (inactive) | > 100 µM (inactive) | > 100 µM (inactive) | –
4 | CCOC(=O)C1=C(NC(C)(C)C)OCC1=O | > 100 µM (inactive) | > 100 µM (inactive) | > 100 µM (inactive) | > 100 µM (inactive) | > 100 µM (inactive) | > 100 µM (inactive) | > 100 µM (inactive) | – | > 100 µM (inactive) | > 100 µM (inactive) | > 100 µM (inactive) | > 100 µM (inactive) | > 100 µM (inactive) | > 100 µM (inactive) | > 100 µM (inactive) | > 100 µM (inactive) | –
5 | COc1cc2c(c(OC)c1OC)-c1ccc(SC)c(=O)cc1[C@@H](NC(=O)c1ccc(Cl)cc1)CC2 | < 0.01 µM (active) | < 0.01 µM (active) | < 0.01 µM (active) | < 0.01 µM (active) | < 0.01 µM (active) | < 0.01 µM (active) | < 0.01 µM (active) | < 0.01 µM (active) | < 0.01 µM (active) | < 0.01 µM (active) | < 0.01 µM (active) | < 0.01 µM (active) | 13.9 µM (inactive) | < 0.01 µM (active) | < 0.01 µM (active) | 0.0196 µM (active) | –
6 | CN1C[C@@H]2CC(=O)CC[C@@H]2C[C@H]1C#N | > 100 µM (inactive) | > 100 µM (inactive) | > 100 µM (inactive) | > 100 µM (inactive) | > 100 µM (inactive) | > 100 µM (inactive) | > 100 µM (inactive) | – | > 100 µM (inactive) | > 100 µM (inactive) | > 100 µM (inactive) | – | – | > 100 µM (inactive) | > 100 µM (inactive) | > 100 µM (inactive) | –
7 | O=C1CCC2(c3ccccc3)Nc3ccccc3N12 (stereo unspecified) | > 100 µM (inactive) | > 100 µM (inactive) | > 100 µM (inactive) | > 100 µM (inactive) | > 100 µM (inactive) | > 100 µM (inactive) | > 100 µM (inactive) | > 100 µM (inactive) | > 100 µM (inactive) | > 100 µM (inactive) | > 100 µM (inactive) | > 100 µM (inactive) | > 100 µM (inactive) | > 100 µM (inactive) | > 100 µM (inactive) | > 100 µM (inactive) | –
8 | CCC1CN2CCc3cc(OC)c(OC)cc3C2CC1CC1c2cc(OC)c(OC)cc2CCN1C(=O)C1CCCN1 (stereo unspecified) | 17.1 µM (inactive) | 30.1 µM (inactive) | 23.9 µM (inactive) | 19.3 µM (inactive) | 27.4 µM (inactive) | – | 24.9 µM (inactive) | 19.2 µM (inactive) | 21.4 µM (inactive) | 31.3 µM (inactive) | 27.4 µM (inactive) | 20.3 µM (inactive) | 18.8 µM (inactive) | 27.8 µM (inactive) | – | 21.5 µM (inactive) | 33.7 µM (inactive)
9 | N#Cc1ccccc1Nc1ccccc1S | 20.9 µM (inactive) | 35.6 µM (inactive) | – | 25.3 µM (inactive) | 57.8 µM (inactive) | – | 17.5 µM (inactive) | 39.4 µM (inactive) | 20.5 µM (inactive) | 22.4 µM (inactive) | – | 17.7 µM (inactive) | 41.2 µM (inactive) | 56.4 µM (inactive) | 19.1 µM (inactive) | 28.2 µM (inactive) | 89.7 µM (inactive)
10 | CCN(CC)c1c(C(=O)/C=C/c2ccccc2)c(-c2ccccc2)nn(C)c1=O | 7.31 µM (inactive) | 3.27 µM (inactive) | – | 4.22 µM (inactive) | 5.48 µM (inactive) | 5.06 µM (inactive) | 3.55 µM (inactive) | > 100 µM (inactive) | 2.8 µM (inactive) | 93.1 µM (inactive) | – | 21.3 µM (inactive) | 7.14 µM (inactive) | – | 5.41 µM (inactive) | > 100 µM (inactive) | –
11 | CC(C)c1cccc(C(C)C)c1NC(=O)/C(Cc1nc2ccc(Cl)cc2nc1O)=N\NC(=O)C[N+](C)(C)C | > 100 µM (inactive) | > 100 µM (inactive) | > 100 µM (inactive) | > 100 µM (inactive) | > 100 µM (inactive) | > 100 µM (inactive) | – | > 100 µM (inactive) | > 100 µM (inactive) | – | > 100 µM (inactive) | > 100 µM (inactive) | > 100 µM (inactive) | > 100 µM (inactive) | > 100 µM (inactive) | 76.7 µM (inactive) | –
12 | O=C1NC2C(O)CCCCC2C12CCCCC2 (stereo unspecified) | > 100 µM (inactive) | > 100 µM (inactive) | – | > 100 µM (inactive) | > 100 µM (inactive) | – | > 100 µM (inactive) | > 100 µM (inactive) | > 100 µM (inactive) | – | > 100 µM (inactive) | > 100 µM (inactive) | > 100 µM (inactive) | > 100 µM (inactive) | > 100 µM (inactive) | > 100 µM (inactive) | > 100 µM (inactive)
13 | COc1cc(Br)c(/C=N\c2cccc3ccc(OS(=O)(=O)c4cccc([N+](=O)[O-])c4)cc23)cc1OC | 25.4 µM (inactive) | 35.5 µM (inactive) | > 100 µM (inactive) | – | 34.7 µM (inactive) | – | 29.8 µM (inactive) | 36.1 µM (inactive) | 36 µM (inactive) | 20.4 µM (inactive) | 32.7 µM (inactive) | 16.9 µM (inactive) | 6.52 µM (inactive) | 39.4 µM (inactive) | 23.1 µM (inactive) | 20.1 µM (inactive) | > 100 µM (inactive)

Reference: ChEMBL document CHEMBL1201862, “PubChem BioAssay data set” (2004)
